Measurements as given in patent publication US10450316B2, “Certain protein kinase inhibitor” (Chongqing Fochon Pharmaceutical Co., Ltd., priority 2015, dated 2019).

Test system: BE(2)-C cell
Test: Cell proliferation assay (MTS) in BE(2)-C cells
Type: cell-based
Conditions: Homo sapiens, inhibition of BE(2)-C cell proliferation, 48 h
Method: MTS testing kit was purchased from Promega. The DMEM, Fetal bovine serum and Penicillin-Streptomycin were purchased from Gibco. Dimethyl sulfoxide (DMSO) was purchased from Sigma.
To investigate whether a compound is able to inhibit the activity of CDK4/6 in cells, mechanism-based assays using BE(2)-C cell (ATCC® number:CRL-2268) were developed. In the assay, inhibition of CDK4/6 was detected by the inhibition of BE(2)-C cell cells proliferation. BE(2)-C cell cells were cultured in culture flasks to 40-80% confluence in DMEM plus 10% fetal bovine serum. Cells were collected and plated onto 96-well plates at cell density of 3000 cells/well. Plates were incubated overnight at 37° C., with 5% CO2 to adhere. Compounds were added to the plates, the final compound concentrations were 10000, 3333, 1111, […], 123.5, 41.2, 13.7, 4.6 and 1.5 nM. Place plates at 37° C., with 5% CO2 for 48 h. After removing the medium, 20 μl MTS/100 μl medium mixture solution were added to each well and incubate the plates for exactly 2 hours. The reaction was terminated by adding 25 μl 10% SDS per well. Measure absorbance at 490 nm and 650 nm (reference wavelength). IC50 was calculated using GraphPad Prism 5.0.
Select compounds prepared as described above were assayed according to the biological procedures described herein. “++++” stands for IC50 value below about 10 nM. “+++” stands for IC50 value between greater than about 10 nM to about 100 nM. “++” stands for IC50 value between greater than about 100 nM to about […]. “+” stands for IC50 value greater than 1 μM.

Row | Compound | IC50 [nM]
1 | FC[C@@H]1CCc2nc3c(F)cc(-c4nc(Nc5ccc(CN6C7CCC6CNC7)cn5)ncc4F)cc3n21 [Example 32, N-(5-((3,8-diazabicyclo[3.2.1]octan-8-yl)methyl)pyridin-2-yl)-5-fluoro-4-((S)-5-fluoro-1-(fluoro-methyl)-2,3-dihydro-1H-benzo[d]pyrrolo[1,2-a]imidazol-7-yl)pyrimidin-2-amine] | > 100
2 | Fc1cnc(Nc2ccc(CN3CC4CNCC4C3)cn2)nc1-c1cc(F)c2nc3n(c2c1)[C@H](C(F)(F)F)CC3 (stereo partly drawn) [Example 73, 5-fluoro-4-((5)-5-fluoro-1-(trifluoromethyl)-2,3-dihydro-1H-benzo[d]pyrrolo[1,2-a]imidazol-7-yl)-N-(5-((hexahydropyrrolo[3,4-c]pyrrol-2(1H)-yl)methyl)pyridin-2-yl)pyrimidin-2-amine] | > 100
3 | CCN1CC2(C1)CN(Cc1ccc(Nc3ncc(F)c(-c4cc(F)c5nc6n(c5c4)[C@H](CF)CC6)n3)nc1)C2 [Example 25, (S)-N-(5-((6-ethyl-2,6-diazaspiro[3.3]heptan-2-yl)methyl)pyridin-2-yl)-5-fluoro-4-(5-fluoro-1-(fluoromethyl)-2,3-dihydro-1H-benzo[d]pyrrolo[1,2-a]imidazol-7-yl)pyrimidin-2-amine] | 10 to 100
4 | CN1CC2(C1)CN(Cc1ccc(Nc3ncc(F)c(-c4cc(F)c5nc6n(c5c4)[C@H](C(F)(F)F)CC6)n3)nc1)C2 [Example 68, (S)-5-fluoro-4-(5-fluoro-1-(trifluoromethyl)-2,3-dihydro-1H-benzo[d]pyrrolo[1,2-a]imidazol-7-yl)-N-(5-((6-methyl-2,6-diazaspiro[3.3]heptan-2-yl)methyl)pyridin-2-yl)pyrimidin-2-amine] | 10 to 100
5 | C[C@@H]1CCc2nc3c(F)cc(-c4nc(Nc5ccc(CN6CC7(CNC7)C6)cn5)ncc4F)cc3n21 [Example 95, (R)-N-(5-((2,6-diazaspiro[3.3]heptan-2-yl)methyl)pyridin-2-yl)-5-fluoro-4-(5-fluoro-1-methyl-2,3-dihydro-1H-benzo[d]pyrrolo[1,2-a]imidazol-7-yl)pyrimidin-2-amine] | > 1000
6 | CCN1C[C@@]2(C)CN(Cc3ccc(Nc4ncc(F)c(-c5cc(F)c6nc7n(c6c5)C5(CC7)CC5)n4)nc3)C[C@@]2(C)C1 [Example 140, N-(5-(((3aR,6aS)-5-ethyl-3a,6a-dimethyl-hexahydropyrrolo[3,4-c]pyrrol-2(1H)-yl)methyl)pyridin-2-yl)-5-fluoro-4-(5-fluoro-2,3-dihydro-spiro[benzo[d]pyrrolo[1,2-a]imidazole-1,1′-cyclopropan]-7-yl)pyrimidin-2-amine] | > 100
7 | CCN1CC2(C1)CN(Cc1ccc(Nc3ncc(F)c(-c4cc(F)c5nc6n(c5c4)[C@H](C(F)F)CC6)n3)nc1)C2 [Example 47, (S)-4-(1-(difluoromethyl)-5-fluoro-2,3-dihydro-1H-benzo[d]pyrrolo[1,2-a]imidazol-7-yl)-N-(5-((6-ethyl-2,6-diazaspiro[3.3]heptan-2-yl)methyl)pyridin-2-yl)-5-fluoropyrimidin-2-amine] | 10 to 100
8 | CC1(C)CCc2nc3ncc(-c4cc(Nc5ccc(CN6C7CCC6CNC7)cn5)ncc4F)cc3n21 [Example 167, N-(5-((3,8-diazabicyclo[3,2,1]octan-8-yl)methyl)pyridin-2-yl)-4-(6,6-dimethyl-7,8-dihydro-6H-pyrrolo[1′,2′:1,2]imidazo[4,5-b]pyridin-3-yl)-5-fluoropyridin-2-amine] | 10 to 100
9 | Fc1cnc(Nc2ccc(CN3CC4(CNC4)C3)cn2)nc1-c1cc(F)c2nc3n(c2c1)[C@H](C(F)(F)F)CC3 [Example 67, (S)-N-(5-((2,6-diazaspiro[3.3]heptan-2-yl)methyl)pyridin-2-yl)-5-fluoro-4-(5-fluoro-1-(trifluoromethyl)-2,3-dihydro-1H-benzo[d]pyrrolo[1,2-a]imidazol-7-yl)pyrimidin-2-amine] | > 100
